Measured values reported in ChEMBL document CHEMBL1131172 (J Med Chem, 1998).

What was measured:
[1] = molecular target: T1, Bifunctional dihydrofolate reductase-thymidylate synthase (Toxoplasma gondii, UniProt Q07422)
T1 sequence (Q07422 whole entry): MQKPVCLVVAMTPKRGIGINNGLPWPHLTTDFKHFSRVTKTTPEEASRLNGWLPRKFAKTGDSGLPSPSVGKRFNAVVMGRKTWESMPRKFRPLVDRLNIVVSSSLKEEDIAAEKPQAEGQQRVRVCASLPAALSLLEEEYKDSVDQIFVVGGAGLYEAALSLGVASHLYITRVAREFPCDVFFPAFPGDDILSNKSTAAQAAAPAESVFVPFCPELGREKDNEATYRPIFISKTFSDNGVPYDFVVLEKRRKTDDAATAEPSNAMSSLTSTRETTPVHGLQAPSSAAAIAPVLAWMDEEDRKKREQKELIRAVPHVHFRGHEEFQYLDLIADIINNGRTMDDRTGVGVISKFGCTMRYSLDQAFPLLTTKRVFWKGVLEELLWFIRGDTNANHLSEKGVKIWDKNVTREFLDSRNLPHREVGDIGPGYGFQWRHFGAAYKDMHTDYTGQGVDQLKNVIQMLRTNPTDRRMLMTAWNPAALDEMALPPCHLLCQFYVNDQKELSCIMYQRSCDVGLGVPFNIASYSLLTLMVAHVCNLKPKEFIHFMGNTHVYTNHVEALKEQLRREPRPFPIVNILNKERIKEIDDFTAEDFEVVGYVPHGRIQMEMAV
Description: Inhibitory activity against dihydrofolate reductase (DHFR) from Toxoplasma gondii

[2] = molecular target: T2, Dihydrofolate reductase (Pneumocystis carinii, UniProt P16184)
T2 sequence (P16184 whole entry): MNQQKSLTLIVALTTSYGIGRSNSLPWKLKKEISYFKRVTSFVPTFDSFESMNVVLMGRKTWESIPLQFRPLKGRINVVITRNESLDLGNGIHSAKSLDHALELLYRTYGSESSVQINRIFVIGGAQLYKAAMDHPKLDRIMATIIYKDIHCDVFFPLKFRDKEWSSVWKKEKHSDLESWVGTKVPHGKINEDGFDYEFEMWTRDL
Description: Inhibitory activity against dihydrofolate reductase (DHFR) from Pneumocystis carinii

[3] = molecular target: T3, Dihydrofolate reductase (Rattus norvegicus, UniProt Q920D2)
T3 sequence (Q920D2 whole entry): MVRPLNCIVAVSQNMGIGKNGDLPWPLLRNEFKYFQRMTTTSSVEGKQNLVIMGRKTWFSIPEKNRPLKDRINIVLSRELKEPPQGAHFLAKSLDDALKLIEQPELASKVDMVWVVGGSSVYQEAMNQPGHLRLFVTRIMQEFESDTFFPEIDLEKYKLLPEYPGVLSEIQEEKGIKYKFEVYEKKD
Description: Inhibitory activity against dihydrofolate reductase (DHFR) from rat liver

[4] = tested on: UO-31; experiment: inhibition of the growth of renal cancer(UO-31) cell line; format: functional; details: Homo sapiens
[5] = tested on: NCI-H522; experiment: inhibition of the growth of non-small-cell lung cancer (NCI-H522) cell line; format: functional; details: Homo sapiens
[6] = tested on: SF-539; experiment: inhibition of the growth of CNS cancer(SF-539) cell line; format: functional; details: Homo sapiens
[7] = tested on: MOLT-4; experiment: inhibition of the growth of leukemia (MOLT-4) cell line; format: functional; details: Homo sapiens
[8] = tested on: HCT-116; experiment: inhibition of the growth of colon cancer(HCT116) cell line; format: functional; details: Homo sapiens
[9] = tested on: SNB-19; experiment: inhibition of the growth of CNS cancer(SNB-19) cell line; format: functional; details: Homo sapiens
[10] = tested on: NCI/ADR-RES; experiment: inhibition of the growth of breast cancer (MCF7/ADR-RES) cell line; format: functional; details: Homo sapiens
[11] = tested on: MDA-N; experiment: Inhibition of the growth of breast cancer(MDA-N) cell line at 0.01 uM; format: functional; details: Homo sapiens
[12] = tested on: NCI/ADR-RES; experiment: Inhibition of the growth of breast cancer (MCF7/ADR-RES) cell line at 0.01 uM; format: functional; details: Homo sapiens
[13] = tested on: NCI-H322M; experiment: inhibition of the growth of non-small-cell lung cancer (NCI-H322M) cell line; format: functional; details: Homo sapiens
[14] = tested on: RPMI-8226; experiment: Inhibition of the growth of leukemia (RPMI-8226) cell line at 0.01 uM; format: functional; details: Homo sapiens
[15] = tested on: MCF7; experiment: inhibition of the growth of breast cancer (MCF-7) cell line; format: functional; details: Homo sapiens
[16] = tested on: NCI-H460; experiment: inhibition of the growth of non-small-cell lung cancer (NCI-H460) cell line; format: functional; details: Homo sapiens
[17] = tested on: CAKI-1; experiment: inhibition of the growth of renal cancer(CAKI-1) cell line; format: functional; details: Homo sapiens
[18] = tested on: KM12; experiment: inhibition of the growth of colon cancer(KM-12) cell line; format: functional; details: Homo sapiens
[19] = tested on: MDA-MB-435; experiment: Inhibition of the growth of breast cancer (MDA-MB-435) cell line at 0.01 uM; format: functional; details: Homo sapiens
[20] = tested on: OVCAR-8; experiment: inhibition of the growth of ovarian cancer(OVCAR-8) cell line; format: functional; details: Homo sapiens
[21] = tested on: IGROV-1; experiment: Inhibition of the growth of ovarian cancer(IGROVI) cell line at 0.01 uM; format: functional; details: Homo sapiens
[22] = tested on: HCT-116; experiment: Inhibition of the growth of colon cancer(HCT116) cell line at 0.01 uM; format: functional; details: Homo sapiens
[23] = tested on: SK-MEL-5; experiment: Inhibition of the growth of melanoma cancer (SK-MEL-5) cell line at 0.01 uM; format: functional; details: Homo sapiens
[24] = tested on: SF-295; experiment: inhibition of the growth of CNS cancer(SF-295) cell line; format: functional; details: Homo sapiens
[25] = tested on: DU-145; experiment: inhibition of the growth of prostate cancer(DU-145) cell line; format: functional; details: Homo sapiens
[26] = tested on: OVCAR-8; experiment: Inhibition of the growth of ovarian cancer(OVCAR-8) cell line at 0.01 uM; format: functional; details: Homo sapiens
[27] = tested on: IGROV-1; experiment: inhibition of the growth of ovarian cancer(IGROVI) cell line; format: functional; details: Homo sapiens
[28] = tested on: 786-0; experiment: inhibition of the growth of renal cancer(786-0) cell line; format: functional; details: Homo sapiens
[29] = tested on: SF-268; experiment: inhibition of the growth of CNS cancer(SF-268) cell line; format: functional; details: Homo sapiens
[30] = tested on: M14; experiment: inhibition of the growth of melanoma cancer (M14) cell line; format: functional; details: Homo sapiens
[31] = tested on: SR; experiment: inhibition of the growth of leukemia(SR) cell line; format: functional; details: Homo sapiens
[32] = tested on: HCT-15; experiment: Inhibition of the growth of colon cancer(HCT-15) cell line at 0.01 uM; format: functional; details: Homo sapiens
[33] = tested on: SF-295; experiment: Inhibition of the growth of CNS cancer(SF-295) cell line at 0.01 uM; format: functional; details: Homo sapiens
[34] = tested on: MDA-MB-435; experiment: inhibition of the growth of breast cancer (MDA-MB-435) cell line; format: functional; details: Homo sapiens
[35] = tested on: SK-MEL-5; experiment: inhibition of the growth of melanoma cancer (SK-MEL-5) cell line; format: functional; details: Homo sapiens
[36] = tested on: NCI-H460; experiment: Inhibition of the growth of non-small-cell lung cancer (NCI-H460) cell line at 0.01 uM; format: functional; details: Homo sapiens
[37] = tested on: A549; experiment: Inhibition of the growth of non-small-cell lung cancer (A549/ATCC) cell line at 0.01 uM; format: functional; details: Homo sapiens
[38] = tested on: HCT-15; experiment: inhibition of the growth of colon cancer(HCT-15) cell line; format: functional; details: Homo sapiens
[39] = tested on: NCI-H23; experiment: inhibition of the growth of non-small-cell lung cancer (NCI-H23) cell line; format: functional; details: Homo sapiens
[40] = tested on: A549; experiment: inhibition of the growth of non-small-cell lung cancer (A549/ATCC) cell line; format: functional; details: Homo sapiens
[41] = tested on: MDA-N; experiment: inhibition of the growth of breast cancer(MDA-N) cell line; format: functional; details: Homo sapiens
[42] = tested on: RPMI-8226; experiment: inhibition of the growth of leukemia (RPMI-8226) cell line; format: functional; details: Homo sapiens

In the case of COc1ccccc1Sc1ccc2nc(N)nc(N)c2n1, the IC50 [1] is reported as 58 nM, the IC50 [2] is reported as 2200 nM and the IC50 [3] is reported as 230 nM.
COc1ccc(Sc2ccc3nc(N)nc(N)c3n2)cc1 was tested, and the IC50 [1] was 45 nM, the IC50 [2] was 700 nM and the IC50 [3] was 75 nM.
COc1ccc(Sc2ccc3nc(N)nc(N)c3n2)cc1OC showed an IC50 [1] of 19 nM, an IC50 [2] of 86 nM and an IC50 [3] of 18 nM.
Nc1nc(N)c2nc(Nc3ccc4ccccc4c3)ccc2n1 showed an IC50 [1] of 1100 nM, an IC50 [2] of 15000 nM and an IC50 [3] of 2000 nM.
COc1ccc(S(=O)(=O)c2ccc3nc(N)nc(N)c3n2)cc1 gave an IC50 [1] of 1000 nM and an IC50 [3] of 2000 nM.
COc1cc(CNc2ccc3nc(N)nc(N)c3n2)cc(OC)c1OC was tested, and the IC50 [1] was 490 nM and the IC50 [3] was 1400 nM.
COc1ccccc1S(=O)(=O)c1ccc2nc(N)nc(N)c2n1 gave an IC50 [1] of 210 nM, an IC50 [2] of 3200 nM and an IC50 [3] of 1400 nM.
CN(c1ccccc1)c1ccc2nc(N)nc(N)c2n1 was tested, and the GI50 [4] was 30 nM, the GI50 [5] was 60 nM and the GI50 [6] was less than 10 nM. For the same molecule, the GI50 [7] was 60 nM, the GI50 [8] was less than 10 nM and the GI50 [9] was 40 nM. For the same molecule, the GI50 [10] was less than 10 nM, the inhibition at 0.01 µM [11] was 68% and the inhibition at 0.01 µM [12] was 83%. The GI50 [13] was 70 nM, the inhibition at 0.01 µM [14] was 59% and the GI50 [15] was 140 nM. For the same molecule, the GI50 [16] was less than 10 nM, the GI50 [17] was 10 nM and the GI50 [18] was 190 nM. The inhibition at 0.01 µM [19] was 73%, the GI50 [20] was less than 10 nM and the inhibition at 0.01 µM [21] was 53%. The inhibition at 0.01 µM [22] was 80%, the inhibition at 0.01 µM [23] was 59% and the GI50 [24] was less than 10 nM. The GI50 [25] was 120 nM, the inhibition at 0.01 µM [26] was 91% and the IC50 [1] was 2.2 nM. For the same molecule, the GI50 [27] was less than 10 nM, the GI50 [28] was 220 nM and the GI50 [29] was 10 nM. For the same molecule, the GI50 [30] was 10 nM, the IC50 [2] was 99.5 nM and the GI50 [31] was 50 nM. The IC50 [3] was 1.3 nM, the inhibition at 0.01 µM [32] was 66% and the inhibition at 0.01 µM [33] was 59%. For the same molecule, the GI50 [34] was less than 10 nM, the GI50 [35] was less than 10 nM and the inhibition at 0.01 µM [36] was 80%. It also gave an inhibition at 0.01 µM [37] of 65%, a GI50 [38] of less than 10 nM and a GI50 [39] of 30 nM. The GI50 [40] was less than 10 nM, the GI50 [41] was less than 10 nM and the GI50 [42] was less than 10 nM.
In the case of COc1ccc(Nc2ccc3nc(N)nc(N)c3n2)cc1, the IC50 [1] is reported as 2800 nM, the IC50 [2] is reported as 90400 nM and the IC50 [3] is reported as 3800 nM.
